Test results: paper PMC7399811, “Analogues of a Cyclic Antimicrobial Peptide with a Flexible Linker Show Promising Activity against Pseudomonas aeruginosa and Staphylococcus aureus” (Antibiotics, 2020)
Converted amounts (≈) assume the structure as drawn. Square brackets hold non-standard residues; d marks the D form. Peptide text beside a SMILES is read from it. Bip = N[C@@H](Cc1ccc(-c2ccccc2)cc1)C(=O)O; 2Nal = N[C@@H](Cc1ccc2ccccc2c1)C(=O)O; Dab = NCC[C@H](N)C(=O)O; AEEA = NCCOCCOCC(=O)O

Key:
[1] = system: P. aeruginosa ATCC 27853; assay: Time-kill kinetics; assay type: cell-based; settings: for kind of activity in time-kill experiments: P. aeruginosa; for effect on CFU: P. aeruginosa late exponential phase (OD600 ~0.1)
Description: (§1) The killing kinetics of compound 11 (Figure 1A–D) were performed in two types of experiments on approximately 5 × 10^5 (exponential phase) and 5 × 10^7 (late exponential phase) colony forming units (CFU). […] Colistin and chloramphenicol was used as control antibiotics against P. aeruginosa and S. aureus, respectively. Chloramphenicol was chosen against S. aureus because initial experiments indicated 11 to be bacteriostatic. Time-kill experiments were performed on balanced exponentially growing cultures of S. aureus ATCC 29213 or P. aeruginosa ATCC 27853. We used balanced cultures, as described in Oddo et al.. In brief, overnight cultures were prepared in MHB broth at 37 °C, with shaking. Overnight cultures, were back diluted and grown exponentially for no less than 8–10 generations, before experimentation. When experiments were done at OD600 = 0.0005 ~5 × 10^5, the cultures were back diluted into fresh MHB, heated to 37 °C from an exponentially growing culture. In the late exponential phase, cultures were simply kept in the exponential phase, until OD600 = 0.1, before experimentation.

[2] = system: S. aureus ATCC 29213; assay type: cell-based
Description: (§2) Bacterial strains (E. coli ATCC 29522, S. aureus ATCC 29213, A. baumannii ATCC 19606, and P. aeruginosa ATCC 27853) were grown overnight on LB agar plates at 37 °C. Overnight cultures were prepared by inoculation of two to three colonies in 10 mL non-cation adjusted Mueller–Hinton broth (MHB) media (BD BBLTM Beef extract powder, BD BactoTMCasamino acids, and DIFCO soluble starch). Bacterial inoculum for MIC testing was prepared as balanced cultures, as previously described. The bacterial suspension was adjusted using MHB to an OD600 of 0.1, approximately 1·10^8 colony forming units (CFU/mL), and then diluted 1:200 in MHB, to give a final bacterial suspension of 5·10^5 CFU/mL, as described by Wiegand et al.. […] For MIC determination, all peptides were measured in triplicates using the protocol described by Wiegand et al. for “antimicrobial peptides that require the presence of acetic acid/BSA”. In brief, 20 µL peptide solution and gentamycin solution was transferred to column 1 of 96-well plates. Next, 10 µL 0.2% BSA; 0.01% acetic acid MHB media was transferred to column 2–11. Subsequently, peptides were serially diluted two-fold in the MIC plate and 90 µL bacterial suspension was transferred to all wells in column 1–11. Next, 100 µL bacterial suspension was transferred to column 12 D–F (growth control) and 100 µL media to column 12 A–C (sterility control). After an overnight incubation at 37 °C of the MIC plates, MIC values were determined as the lowest concentration at which there was no visible bacterial growth. For the inoculum control, 10 µL of solution from a positive-growth control well from each bacterial strain was dissolved in 990 µL phosphate-buffered saline (PBS) (1:100 dilution) in an Eppendorf tube. This solution was vortexed and 100 µL transferred to another Eppendorf tube containing 900 µL PBS (1:10 dilution) and vortexed. Then, 100 µL of each dilution was spread onto the MHB media plates, in triplicates, to achieve a CFU dilution of 1:1000 and 1:10,000, respectively. The plates were incubated overnight at 37 °C. The colonies were counted and 50 colonies were expected on the 1:10,000 plates and 500 on the 1:1000 plates.

[3] = system: E. coli ATCC 29522; assay type: cell-based; settings: for Minimum inhibitory concentration EC: ATCC 29522
Description: as §2

[4] = system: P. aeruginosa ATCC 27853; assay type: cell-based
Description: as §2

[5] = system: A. baumannii ATCC 19606; assay type: cell-based; settings: for Minimum inhibitory concentration AB: ATCC 19606
Description: as §2

[6] = system: red blood cells; settings: at 150 µM peptide; 0.5% v/v RBC in PBS, 1 h 37 °C, absorbance 414 nm, normalized to melittin (100%) and PBS (0%)
Description: A total of 150 µL of 5 µM melittin was added to the positive control wells 1-6H of a V-shaped 96-well polypropylene plate and left overnight. The melittin solution was removed and the positive control wells were washed 3 times with 150 µL PBS. Afterwards, a 2.5 µM melittin solution was added to the positive control wells. For the assay, 0-negative blood in EDTA was used. Blood was washed by mixing 3 mL of PBS with 1 mL of whole blood, and centrifuged for 8 min at 3000 rpm. The supernatant was discarded and 4 mL of PBS added, mixed gently, and centrifuged. This wash cycle was repeated but the last centrifuge velocity was raised to 4000 rpm. Next, 40 µL red blood cells (RBC) was suspended in 8 mL of PBS to achieve an RBC suspension of 0.5% volume/volume (v/v). Peptide solutions were prepared at 600 µM, two times the highest concentration. A total of 150 µL peptide solution was transferred to row A. Next, 75 µL PBS was transferred to wells B1 to G12, as well as H7-12 (negative control), and the peptides were serially diluted two-fold. Then, 75 µL RBC suspension was added to all wells and the plate was covered with a Microseal® film and incubated for 1 h at 37 °C. Next, the plate was centrifuged for 10 min at 4000 rpm. Subsequently, 60 µL supernatant was transferred into the corresponding wells of a clear, polystyrene, flat-bottomed 96-well ELISA plate. The absorbance was read at λ = 414 nm with a VersaMaxTM Tunable Microplate Reader and the data were evaluated on Softmax® Pro. The results were normalized with respect to the average positive (100%) and negative (0%) controls, as described previously [43].

[7] = RP-HPLC retention time as indicator of hydrophobicity/amphipathicity; assay type: physicochemical; settings: chromatographic, Waters Symmetry C18 4.6 × 250 mm, used as measure of hydrophobicity/amphipathicity (Table S1)
Description: Cleavage was performed on half or all of the resin with a TFA:H2O:TIS (95:2.5:2.5) solution for 2 h. The cleavage solution was collected and concentrated with a gentle stream of N2, down to about 300 µL. The peptide was precipitated and washed with 4 mL cold (−20 °C) diethyl ether, 3 times. The residual ether was left overnight to evaporate. Next, the crude product was dissolved in 90% water and 10% ACN and freeze-dried, ready for analysis and purification. Peptides were identified using Matrix Assisted Laser Desorption Ionization time of flight mass spectroscopy (MALDI–ToF MS). To this end, 1 µL peptide solution and 1 µL α-cyano4-hydroxycinnamic acid matrix (10 mg/ mL in ACN:H2O:TFA, 50:47.5:2.5) were spotted onto a target plate, followed by detection using a MicroflexTM. FlexControl software was used to obtain the spectra and the data were processed using flexAnalysis [Bruker Daltonik GmbH]. RP–HPLC was used to assess peptide purity. The system consisted of a WatersTM In-Line Degasser AF, a WatersTM 600 pump, a WatersTM 2996 Photodiode Array Detector, and a WatersTM Symmetry C18, 4.6 × 250 mm, […] column. The data were processed using Empower3 software. Purity was ≥95% for all tested peptide. Peptide purification was done by dissolving the peptides in minimal […], and 300–500 µL was injected into the HPLC system to achieve separation.

[8] = system: S. aureus, P. aeruginosa, E. coli, A. baumannii; assay: Minimum inhibitory concentration, statements over several strains; assay type: cell-based; settings: MIC against S. aureus and P. aeruginosa
Description: Bacterial strains (E. coli ATCC 29522, S. aureus ATCC 29213, A. baumannii ATCC 19606, and P. aeruginosa ATCC 27853) were grown overnight on LB agar plates at 37 °C. Overnight cultures were prepared by inoculation of two to three colonies in 10 mL non-cation adjusted Mueller–Hinton broth (MHB) media (BD BBLTM Beef extract powder, BD BactoTMCasamino acids, and DIFCO soluble starch). Bacterial inoculum for MIC testing was prepared as balanced cultures, as previously described. The bacterial suspension was adjusted using MHB to an OD600 of 0.1, approximately 1·10^8 colony forming units (CFU/mL), and then diluted 1:200 in MHB, to give a final bacterial suspension of 5·10^5 CFU/mL, as described by Wiegand et al.. […] For MIC determination, all peptides were measured in triplicates using the protocol described by Wiegand et al. for “antimicrobial peptides that require the presence of acetic acid/BSA”. In brief, 20 µL peptide solution and gentamycin solution was transferred to column 1 of 96-well plates. Next, 10 µL 0.2% BSA; 0.01% acetic acid MHB media was transferred to column 2–11. Subsequently, peptides were serially diluted two-fold in the MIC plate and 90 µL bacterial suspension was transferred to all wells in column 1–11. […] The colonies were counted and 50 colonies were expected on the 1:10,000 plates and 500 on the 1:1000 plates.

[9] = system: S. aureus ATCC 29213; assay: Time-kill kinetics; assay type: cell-based
Description: as §1

[10] = P. aeruginosa late exponential phase, 5× MIC

Compound	kind of activity in time-kill experiments [1]	effect on CFU ([1]; 1× MIC)	reduction in CFU [1, 10] [log]	Minimum inhibitory concentration SA [2] [µg/mL]	Minimum inhibitory concentration EC [3] [µg/mL]	Minimum inhibitory concentration PA [4] [µg/mL]	Minimum inhibitory concentration AB [5] [µg/mL]	percent hemolytic activity against red blood cells (%H) [6] [%]	HPLC retention time (RT) [7] [min]	increase in activity compared to BSI-9 [8] [fold]	reduction in CFU ([9]; S. aureus exponential phase, 1× MIC) [log]	reduction in CFU ([9]; S. aureus exponential phase, 3× MIC and 5× MIC) [log]	reduction in CFU ([9]; S. aureus late exponential phase, 5× MIC, regrowth after 24 h) [log]	reduction in viable bacterial counts ([1]; P. aeruginosa exponential phase (~5 × 10^5 CFU), 1× MIC)	reduction in CFU ([1]; P. aeruginosa exponential phase, 3–5× MIC, within the first hour) [log]	reduction in CFU ([1]; P. aeruginosa late exponential phase, 3× MIC) [log]	activity in MIC assays ([3]; E. coli)	activity in MIC assays ([5]; A. baumannii)
colistin [reference compound]	bactericidal	virtually no effect	1	–	–	–	–	–	–	–	–	–	–	–	–	–	–	–
N=C(N)NCCC[C@@H]1NC(=O)[C@H](Cc2ccc3ccccc3c2)NC(=O)COCCOCCNC(=O)[C@H](Cc2ccc(-c3ccccc3)cc2)NC(=O)[C@H](CCN)NC(=O)[C@H](CCN)NC(=O)[C@H](Cc2ccc3ccccc3c2)NC(=O)[C@H](CCN)NC(=O)[C@H](CC(N)=O)NC1=O [compound 13] (cyclo([Dab][2Nal][Dab][Dab][Bip][AEEA][2Nal]RN))	–	–	–	1 (≈ 0.75 µM)	32 (≈ 24 µM)	4 (≈ 3 µM)	64 (≈ 48 µM)	80	17.9	–	–	–	–	–	–	–	–	–
NCC[C@@H]1NC(=O)[C@H](Cc2ccc3ccccc3c2)NC(=O)COCCOCCNC(=O)[C@H](Cc2ccc(-c3ccccc3)cc2)NC(=O)[C@H](CCN)NC(=O)[C@H](CCN)NC(=O)[C@H](Cc2ccc3ccccc3c2)NC(=O)[C@H](CCN)NC(=O)[C@H](CC(N)=O)NC1=O [compound 9] (cyclo([Dab][2Nal][Dab][Dab][Bip][AEEA][2Nal][Dab]N))	–	–	–	8 (≈ 6.26 µM)	>64	4 (≈ 3.13 µM)	32 (≈ 25 µM)	76	17.8	8	–	–	–	–	–	–	–	–
NCCCC[C@@H]1NC(=O)[C@H](Cc2ccc3ccccc3c2)NC(=O)COCCOCCNC(=O)[C@H](Cc2ccc(-c3ccccc3)cc2)NC(=O)[C@H](CCCCN)NC(=O)[C@H](CCCCN)NC(=O)[C@H](Cc2ccc3ccccc3c2)NC(=O)[C@H](CCCCN)NC(=O)[C@H](CC(N)=O)NC1=O [BSI-9, cyclo(Lys-Nal-Lys-Lys-Bip-O2Oc-Nal-Lys-Asn), reference compound] (cyclo(K[2Nal]KK[Bip][AEEA][2Nal]KN))	–	–	–	32 (≈ 23 µM)	64 (≈ 46.1 µM)	16 (≈ 11.5 µM)	32 (≈ 23 µM)	33	–	–	–	–	–	–	–	–	–	–
N=C(N)NCCC[C@@H]1NC(=O)[C@H](Cc2ccc3ccccc3c2)NC(=O)[C@H](CCN)NC(=O)[C@H](CC(N)=O)NC(=O)[C@H](CCN)NC(=O)[C@H](Cc2ccc3ccccc3c2)NC(=O)COCCOCCNC(=O)[C@H](Cc2ccc(-c3ccccc3)cc2)NC(=O)[C@H](CCN)NC1=O [compound 11] (cyclo([Dab][2Nal]R[Dab][Bip][AEEA][2Nal][Dab]N))	bactericidal	virtually no effect	3	–	32 (≈ 24 µM)	–	32 (≈ 24 µM)	36	–	–	2	> 3	3	~ 2 log	> 3	1	no activity	no activity
NCCCC[C@@H]1NC(=O)[C@H](Cc2ccc3ccccc3c2)NC(=O)COCCOCCNC(=O)[C@H](Cc2ccc(-c3ccccc3)cc2)NC(=O)[C@H](CCCCN)NC(=O)[C@H](CCCCN)NC(=O)[C@H](Cc2ccccc2)NC(=O)[C@H](CCCCN)NC(=O)[C@H](CC(N)=O)NC1=O [compound 5] (cyclo(KFKK[Bip][AEEA][2Nal]KN))	–	–	–	>64	>64	32 (≈ 23.9 µM)	>64	4	–	–	–	–	–	–	–	–	–	–
